According to ChEMBL document CHEMBL4396971, “Discovery of potent and orally bioavailable indazole-based glucagon receptor antagonists for the treatment of type 2 diabetes” (Bioorg Med Chem Lett, 2019):

test system: not listed separately; experiment: Stability in human liver microsomes assessed as parent compound remaining at 1 uM incubated for 10 mins; assay type: ADME, Microsome; settings: read-out: Stability

remaining at 10 min, 1 µM	Compound
89%	COc1c(-c2ccc(C(F)(F)F)cc2Cl)ccc2nn([C@@H](CC(C)C)c3ccc(C(=O)NCCC(=O)O)cc3)cc12

test system: not listed separately; experiment: Stability in mouse liver microsomes assessed as parent compound remaining at 1 uM incubated for 10 mins; assay type: ADME, Microsome; settings: liver microsomes, read-out: Stability

remaining at 10 min, 1 µM	Compound
82%	COc1c(-c2ccc(C(F)(F)F)cc2Cl)ccc2nn([C@@H](CC(C)C)c3ccc(C(=O)NCCC(=O)O)cc3)cc12

test system: not listed separately; experiment: Stability in rat liver microsomes assessed as parent compound remaining at 1 uM incubated for 10 mins; assay type: ADME, Microsome; settings: read-out: Stability

remaining at 10 min, 1 µM	Compound
84%	COc1c(-c2ccc(C(F)(F)F)cc2Cl)ccc2nn([C@@H](CC(C)C)c3ccc(C(=O)NCCC(=O)O)cc3)cc12

test system: not listed separately; experiment: Stability in dog liver microsomes assessed as parent compound remaining at 1 uM incubated for 10 mins; assay type: ADME, Canis lupus familiaris, Microsome; settings: liver microsomes, read-out: Stability

remaining at 10 min, 1 µM	Compound
76%	COc1c(-c2ccc(C(F)(F)F)cc2Cl)ccc2nn([C@@H](CC(C)C)c3ccc(C(=O)NCCC(=O)O)cc3)cc12

molecular target: Glucagon receptor (Homo sapiens, UniProt P47871); experiment: Inhibition of human full length GCGR transfected in HEK293 cells assessed as reduction in glucagon-induced cAMP response by LANCE TR-FRET assay; assay type: functional, cell-based; settings: not given
Sequence (P47871 whole entry): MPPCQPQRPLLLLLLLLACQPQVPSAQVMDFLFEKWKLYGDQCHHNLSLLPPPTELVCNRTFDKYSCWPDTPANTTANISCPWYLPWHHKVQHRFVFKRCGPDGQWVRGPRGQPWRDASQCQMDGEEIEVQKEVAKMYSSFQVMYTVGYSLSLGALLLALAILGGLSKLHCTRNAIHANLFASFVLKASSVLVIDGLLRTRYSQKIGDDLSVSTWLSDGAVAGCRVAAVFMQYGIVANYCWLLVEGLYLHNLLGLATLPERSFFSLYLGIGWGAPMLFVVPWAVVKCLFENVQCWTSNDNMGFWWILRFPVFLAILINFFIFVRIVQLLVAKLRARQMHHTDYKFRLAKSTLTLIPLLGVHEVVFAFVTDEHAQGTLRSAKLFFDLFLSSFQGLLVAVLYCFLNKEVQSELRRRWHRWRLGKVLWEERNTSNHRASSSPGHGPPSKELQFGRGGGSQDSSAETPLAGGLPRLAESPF

Ki	Compound
125 nM	CC(C)CC(c1ccc(C(=O)NCCC(=O)O)cc1)n1ncc2cc(-c3ccc(C(F)(F)F)cc3)ccc21 (racemic)
96 nM	CC(C)C[C@H](c1ccc(C(=O)NCCC(=O)O)cc1)n1ncc2cc(-c3ccc(C(F)(F)F)cc3)ccc21
460 nM	CC(C)C[C@@H](c1ccc(C(=O)NCCC(=O)O)cc1)n1ncc2cc(-c3ccc(C(F)(F)F)cc3)ccc21
